Broadly, the AC50 is the midpoint of the concentration-response curve, whichever way the signal moves.

SMILES strings stand for the structures.

The target of the first experiment is T1, human PAH with the R408W mutation (Homo sapiens, UniProt P00439, R408W).
T1 construct: expressed in transfected cells
T1 sequence (P00439 1-452 R408W): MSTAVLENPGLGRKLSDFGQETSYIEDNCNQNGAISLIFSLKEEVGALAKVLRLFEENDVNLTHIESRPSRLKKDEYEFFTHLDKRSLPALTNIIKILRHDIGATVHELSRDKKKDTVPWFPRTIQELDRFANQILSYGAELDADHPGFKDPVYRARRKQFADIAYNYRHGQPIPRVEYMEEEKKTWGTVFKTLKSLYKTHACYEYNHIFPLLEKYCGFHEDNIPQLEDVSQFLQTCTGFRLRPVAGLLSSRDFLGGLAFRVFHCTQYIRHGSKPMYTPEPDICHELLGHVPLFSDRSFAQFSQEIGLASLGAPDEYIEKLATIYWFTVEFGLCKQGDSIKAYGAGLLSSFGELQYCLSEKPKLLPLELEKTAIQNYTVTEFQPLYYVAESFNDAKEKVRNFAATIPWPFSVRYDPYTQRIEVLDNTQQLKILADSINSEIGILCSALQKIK
The experiment can be described thus: Cell Based Phenylalanine Flux Assay. The conditions noted are these: A375 cells expressing human R408W PAH; 24 hrs compound incubation; 13C-Tyrosine by LC-MS; average where tested multiple times; read-out: AC50.
As to `Cc1nc(-c2cnn(C(C)C)c2)oc1C(=O)N1CCc2[nH]cnc2[C@H]1c1nc2ccccc2s1` [Example 1423], the AC50 is less than 500 nM. Turning to `C[C@@H]1CN(C(=O)c2nnc(-c3ccc(F)cn3)o2)[C@H](c2nc3ccccc3s2)c2nc[nH]c21` [Example 1754, ((4S,7R)-4-(benzo[d]thiazol-2-yl)-7-methyl-6,7-dihydro-1H-imidazo[4,5-c]pyridin-5(4H)-yl)(5-(5-fluoropyridin-2-yl)-1,3,4-oxadiazol-2-yl)methanone], the AC50 lay within 500 to 1000 nM. On to `O=C(c1ccnn1CC(F)(F)F)N1CCc2[nH]cnc2[C@H]1c1nc2c(F)cccc2s1` [Example 1737, (S)-(4-(4-fluorobenzo[d]thiazol-2-yl)-6,7-dihydro-1H-imidazo[4,5-c]pyridin-5(4H)-yl)(1-(2,2,2-trifluoroethyl)-1H-pyrazol-5-yl)methanone], for which the AC50 was less than 500 nM. Still for that read-out and setting: the result for `O=C(c1oc(N2CCOCC2)nc1Br)N1CCc2[nH]cnc2[C@H]1c1nc2c(F)cccc2s1` [Example 2033] reads less than 500 nM; that for `O=C(c1cnc(C2CC2)o1)N1CCc2[nH]cnc2[C@@H]1c1nc2ccccc2s1` [Example 1188, (R)-(4-(benzo[d]thiazol-2-yl)-6,7-dihydro-1H-imidazo[4,5-c]pyridin-5(4H)-yl)(2-cyclopropyloxazol-5-yl)methanone], 1000 to 5000 nM; that for `O=C(c1oc(N2CCOCC2)nc1C(F)(F)F)N1CCc2[nH]cnc2[C@H]1c1nc2ccccc2s1` [Example 2165], less than 500 nM. Still for that read-out and setting: in the case of `O=C(CC1CC(F)C1)N1CCc2[nH]cnc2[C@@H]1c1nc2c(F)cccc2s1` (stereo partly drawn) [Example 1650, (R)-1-(4-(4-fluorobenzo[d]thiazol-2-yl)-6,7-dihydro-1H-imidazo[4,5-c]pyridin-5(4H)-yl)-2-(3-fluorocyclobutyl)ethanone] it was 1000 to 5000 nM; in that of `O=C(N1CCc2[nH]cnc2[C@H]1c1nc2ccccc2s1)C1(c2cnco2)CC1` [Example 1629], 500 to 1000 nM. As to `O=C(c1oc(-c2ccccn2)nc1C(F)(F)F)N1CC2(CC2)c2[nH]cnc2[C@@H]1c1nc2ccccc2s1` [Example 1682, (R)-(4′-(benzo[d]thiazol-2-yl)spiro[cyclopropane-1,7′-imidazo[4,5-c]pyridin]-5′(1′H,4′H,6′H)-yl)(2-(pyridin-2-yl)-4-(trifluoromethyl)oxazol-5-yl)methanone], the AC50 was in the range of 1000 to 5000 nM.

As to `CC[C@@H](O)c1nc(C(F)F)c(C(=O)N2CCc3[nH]cnc3[C@@H]2c2nc3c(F)cccc3s2)o1` [Example 2068, (4-(difluoromethyl)-2-((R)-1-hydroxypropyl)oxazol-5-yl)((R)-4-(4-fluorobenzo[d]thiazol-2-yl)-6,7-dihydro-1H-imidazo[4,5-c]pyridin-5(4H)-yl)methanone], the AC50 was in the range of 500 to 1000 nM. Same read-out and setting: in the case of `Cc1csc(C(=O)N2CCc3[nH]cnc3[C@@H]2c2nc3ccccc3s2)n1` [Example 1043, (R)-(4-(benzo[d]thiazol-2-yl)-6,7-dihydro-1H-imidazo[4,5-c]pyridin-5(4H)-yl)(4-methylthiazol-2-yl)methanone] it was greater than 5000 nM; in that of `O=C(C1CC1)N1CCc2[nH]cnc2[C@H]1c1nc2ccccc2s1` [Example 1073], 1000 to 5000 nM. On the same count and under the same terms, in the case of `Cn1cc(-c2ncc(C(=O)N3CCc4[nH]cnc4[C@@H]3c3nc4ccccc4s3)s2)c(C2CC2)n1` [Example 1386, (R)-(4-(benzo[d]thiazol-2-yl)-6,7-dihydro-1H-imidazo[4,5-c]pyridin-5(4H)-yl)(2-(3-cyclopropyl-1-methyl-1H-pyrazol-4-yl)thiazol-5-yl)methanone] it was 1000 to 5000 nM; in that of `Cc1cnc(CCC(=O)N2CCc3[nH]cnc3[C@H]2c2nc3ccccc3s2)s1` [Example 1031], 500 to 1000 nM. The same measure, in the same setting: in the case of `O=C(c1cnn2ccc(Br)cc12)N1CCc2[nH]cnc2[C@@H]1c1nc2c(F)cccc2s1` [Example 1172, (R)-(5-bromopyrazolo[1,5-a]pyridin-3-yl)(4-(4-fluorobenzo[d]thiazol-2-yl)-6,7-dihydro-1H-imidazo[4,5-c]pyridin-5(4H)-yl)methanone] it was 500 to 1000 nM; in that of `O=C(c1cnc(-c2cc(C(F)(F)F)ccn2)s1)N1CCc2[nH]cnc2[C@@H]1c1nc2ccccc2s1` [Example 1358, (R)-(4-(benzo[d]thiazol-2-yl)-6,7-dihydro-1H-imidazo[4,5-c]pyridin-5(4H)-yl)(2-(4-(trifluoromethyl)pyridin-2-yl)thiazol-5-yl)methanone], 1000 to 5000 nM; in that of `CC(C)n1cc(-c2ncc(C(=O)N3CCc4[nH]cnc4[C@H]3c3nc4ccccc4s3)o2)cn1` [Example 1415], less than 500 nM. With `O=C(c1cn[nH]c1C(F)F)N1CCc2[nH]cnc2[C@H]1c1nc2c(F)cccc2s1` [Example 1859], the AC50 is less than 500 nM. Still for that read-out and setting: the result for `CC(F)c1nc(C(F)F)c(C(=O)N2CCc3[nH]cnc3[C@H]2c2nc3c(F)cccc3s2)o1` (single isomer, unassigned) [Example 2074] reads less than 500 nM; that for `Cn1cc(-c2nnc(C(=O)N3CCc4[nH]cnc4[C@H]3c3nc4c(F)cccc4s3)o2)c(C(F)(F)F)n1` [Example 1927, (S)-(4-(4-fluorobenzo[d]thiazol-2-yl)-6,7-dihydro-1H-imidazo[4,5-c]pyridin-5(4H)-yl)(5-(1-methyl-3-(trifluoromethyl)-1H-pyrazol-4-yl)-1,3,4-oxadiazol-2-yl)methanone], less than 500 nM.

Consider `O=C(c1cnc(-c2ccccc2)s1)N1CCc2[nH]cnc2[C@@H]1c1nc2ccccc2s1` [Example 1204, (R)-(4-(benzo[d]thiazol-2-yl)-6,7-dihydro-1H-imidazo[4,5-c]pyridin-5(4H)-yl)(2-phenylthiazol-5-yl)methanone], for which the AC50 was in the range of 1000 to 5000 nM. Same read-out and setting: the result for `O=C(c1cnn2ccc(Cl)cc12)N1CCc2[nH]cnc2[C@@H]1c1nc2ccc(Br)cc2[nH]1` [Example 966, (R)-(4-(6-bromo-1H-benzo[d]imidazol-2-yl)-6,7-dihydro-1H-imidazo[4,5-c]pyridin-5(4H)-yl)(5-chloropyrazolo[1,5-a]pyridin-3-yl)methanone] reads greater than 5000 nM. For the molecule `O=C(CC1CC1)N1CCc2[nH]cnc2[C@H]1c1nc2ccc(Cl)cc2[nH]1` [Example 954, (S)-1-(4-(6-chloro-1H-benzo[d]imidazol-2-yl)-6,7-dihydro-1H-imidazo[4,5-c]pyridin-5(4H)-yl)-2-cyclopropylethanone], the AC50 was less than 500 nM.

For the molecule `O=C(c1cnc(-c2ccccn2)s1)N1CCc2[nH]cnc2[C@H]1c1nc2ccccc2s1` [Example 1205], the AC50 is less than 500 nM.

In the case of `O=C(c1scnc1C(F)(F)F)N1CCc2[nH]cnc2[C@H]1c1nc2ccccc2s1` [Example 1341], the AC50 is less than 500 nM.

Staying with this experiment, now noted: A375 cells expressing human R408W PAH; 24 hrs with compound; 13C-Tyrosine by LC-MS; average where tested multiple times; read-out: AC50.
`O=C(c1nc2ccccc2s1)N1CCc2[nH]cnc2C1c1nc2ccccc2[nH]1` (stereo not drawn): the AC50 was in the range of 1000 to 5000 nM. Turning to `Cn1nc(C2CC2)nc1C(=O)N1CCc2[nH]cnc2C1c1nc2c(F)cccc2s1` (stereo not drawn), the AC50 fell in the range of 1000 to 5000 nM. The same measure, in the same setting: in the case of `O=C(c1cnco1)N1CC2(CC2)c2[nH]cnc2C1c1nc2ccccc2s1` (stereo not drawn) it was 1000 to 5000 nM; in that of `O=C(c1cc2ccccn2n1)N1CCc2nc[nH]c2C1c1nc2ccccc2s1` (stereo not drawn), 1000 to 5000 nM. Same read-out and setting: the result for `O=C(Cc1nc(C(F)(F)F)cs1)N1CCc2[nH]cnc2C1c1nc2ccc(F)cc2s1` (stereo not drawn) reads greater than 5000 nM; that for `O=C(c1nc2ccccc2s1)N1CCc2[nH]cnc2C1c1nc2c(F)cccc2s1` (stereo not drawn), greater than 5000 nM; that for `Cc1ccc2c(C(=O)N3CCc4[nH]cnc4C3c3nc4ccc(Cl)cc4[nH]3)cnn2c1` (stereo not drawn), greater than 5000 nM.

In the case of `Cc1nnc(CC(=O)N2CCc3[nH]cnc3[C@@H]2c2nc3c(F)cccc3s2)s1` (single isomer, unassigned), the AC50 is greater than 5000 nM. On the same count and under the same terms, the result for `COc1ccn2ncc(C(=O)N3CCc4[nH]cnc4C3c3nc4ccc(Cl)cc4[nH]3)c2c1` (stereo not drawn) reads 1000 to 5000 nM. Still for that read-out and setting: in the case of `N#Cc1nc(NCC(F)(F)F)oc1C(=O)N1CCc2[nH]cnc2C1c1nc2ccccc2s1` (stereo not drawn) it was greater than 5000 nM; in that of `O=C(c1cnc[nH]1)N1CCc2[nH]cnc2C1c1nc2ccccc2[nH]1` (stereo not drawn), greater than 5000 nM; in that of `O=C(CCc1nc2ccccc2s1)N1CCc2[nH]cnc2[C@H]1c1nc2ccccc2[nH]1` [(S)-1-(4-(1H-benzo[d]imidazol-2-yl)-1,4,6,7-tetrahydro-5H-imidazo[4,5-c]pyridin-5-yl)-3-(benzo[d]thiazol-2-yl)propan-1-one], 1000 to 5000 nM. The same measure, in the same setting: the result for `O=C(c1nccs1)N1CCc2[nH]cnc2[C@H]1c1nc2ccc(Cl)cc2s1` (single isomer, unassigned) reads 1000 to 5000 nM; that for `O=C(c1nc2ccccc2s1)N1CCc2[nH]cnc2C1c1nc2ccc(Cl)cc2[nH]1` (stereo not drawn), greater than 5000 nM; that for `O=C(N1CCC(c2ccccc2)C1)N1CCc2[nH]cnc2C1c1nc2ccccc2s1` (stereo not drawn), 1000 to 5000 nM. As for `Cn1nnc(C(=O)N2CCc3[nH]cnc3C2c2nc3c(F)cccc3s2)n1` (stereo not drawn), the AC50 is greater than 5000 nM. In the case of `O=C(c1n[nH]c2ccccc12)N1CCc2[nH]cnc2[C@H]1c1nc2ccccc2[nH]1` [(S)-(4-(1H-benzo[d]imidazol-2-yl)-1,4,6,7-tetrahydro-5H-imidazo[4,5-c]pyridin-5-yl)(1H-indazol-3-yl)methanone], the AC50 was greater than 5000 nM. Same read-out and setting: in the case of `Cc1noc(C(=O)N2CCc3[nH]cnc3[C@@H]2c2nc3ccccc3s2)n1` (single isomer, unassigned) it was greater than 5000 nM. Same read-out and setting: in the case of `O=C(c1nnc(-c2ccccn2)o1)N1CCc2[nH]cnc2C1c1nc2ccccc2[nH]1` (stereo not drawn) it was 1000 to 5000 nM; in that of `Cc1nnc(CCC(=O)N2CCc3[nH]cnc3C2c2nc3cc(F)ccc3s2)s1` (stereo not drawn), greater than 5000 nM.

The record behind these values is patent US20250171438A1 (Agios Pharmaceuticals, Inc., priority 2022, published 2025).
